Source: ChEMBL document CHEMBL1156829 (Proc Natl Acad Sci U S A, 2008)

Columns and labels:
[1] = tested on: Plasmodium falciparum; assay: NOVARTIS: Inhibition of Plasmodium falciparum W2 (drug-resistant) proliferation in erythrocyte-based infection assay; assay type: functional, organism-based; details: Plasmodium falciparum, W2; read-out: EC50
[2] = tested on: Plasmodium falciparum; assay: NOVARTIS: Inhibition of Plasmodium falciparum 3D7 (drug-susceptible) proliferation in erythrocyte-based infection assay; assay type: functional, organism-based; details: Plasmodium falciparum, 3D7
[3] = NOVARTIS: Cytotoxicity against human hepatocellular carcinoma cell line (Huh7); assay type: toxicity, cell-based, Huh-7; details: Huh7 cells (hepatocellular carcinoma cell line)

C=C[C@H]1CN2CC[C@H]1C[C@@H]2[C@@H](OC(C)=O)c1ccnc2ccccc12
EC50 [1]: 0.157 µM | EC50 [2]: 0.666 µM | CC50 [3]: > 10 µM

O=C(Nc1ccc(C(F)(F)F)cc1)c1ccc(NCCCN2CCCCCC2)c([N+](=O)[O-])c1
EC50 [1]: 0.328 µM | EC50 [2]: 0.12 µM | CC50 [3]: 21.2 µM

CC(Oc1ccc(Cl)cc1Cl)c1nc(-c2ccc(NC(=O)c3ccco3)cc2)no1 (centres undefined)
EC50 [1]: 0.551 µM | EC50 [2]: 0.313 µM | CC50 [3]: 35.6 µM

O=C1c2cccc(N3CCCC(C(=O)N4CCCCC4c4cccnc4)C3)c2C(=O)N1Cc1ccc(C(F)(F)F)cc1 (centres undefined)
EC50 [1]: 1.53 µM | EC50 [2]: 3.41 µM | CC50 [3]: > 100 µM

Cc1ccc(C2CC3=Nc4ccccc4N(C(=O)C(F)(F)F)C(c4ccc(OCc5ccccc5)cc4)C3=C(O)C2)cc1 (centres undefined)
EC50 [1]: 1.55 µM | EC50 [2]: 1.66 µM | CC50 [3]: > 100 µM

Cc1c(NC(=O)C2c3ccccc3C(=O)N3CCc4ccccc4C23)cccc1[N+](=O)[O-] (centres undefined)
EC50 [1]: 1.52 µM | EC50 [2]: 4.07 µM | CC50 [3]: > 100 µM

CCN(CC)CCNc1nc(/C=C/c2ccc(Cl)cc2)nc2cc3ccccc3cc12
EC50 [1]: 0.0901 µM | EC50 [2]: 0.124 µM | CC50 [3]: 5.93 µM

O=C(NCc1ccccc1C(F)(F)F)C1CC(O)CN1C(=O)Nc1ccccc1 (centres undefined)
EC50 [1]: 0.151 µM | EC50 [2]: > 1.25 µM | CC50 [3]: > 10 µM

CN(CCCNc1ccnc2cc(Cl)ccc12)C(=O)CCc1ccccc1
EC50 [1]: 0.187 µM | EC50 [2]: 0.136 µM | CC50 [3]: > 12.1 µM

Cc1nc2cc(-c3ccc(I)cc3)nn2c(O)c1C
EC50 [1]: 1.54 µM | EC50 [2]: 4.2 µM | CC50 [3]: > 100 µM

CCCCC(=O)N(C)CCCNc1ccnc2cc(Cl)ccc12
EC50 [1]: 0.154 µM | EC50 [2]: 0.124 µM | CC50 [3]: > 10 µM

CC1(C)C(=O)C2(CCCCC2)C(=O)OC1C=Cc1ccccc1 (centres undefined)
EC50 [1]: 1.54 µM | EC50 [2]: > 12.5 µM | CC50 [3]: > 100 µM

O=C1CC(N2CCCCCC2)C(=O)N1c1ccc(N2C(=O)CC(N3CCCCCC3)C2=O)cc1 (centres undefined)
EC50 [1]: > 0.155 µM | EC50 [2]: > 1.25 µM | CC50 [3]: > 10 µM

C(=Nc1cnc2ccccc2c1)c1c2n(c3ccccc13)CCCN2
EC50 [1]: 1.51 µM | EC50 [2]: 0.663 µM | CC50 [3]: > 100 µM

C=CCCC(=O)N1CCC(C(=O)Nc2ccc(-c3nc4ccccc4o3)cc2)CC1
EC50 [1]: 1.53 µM | EC50 [2]: 5.42 µM | CC50 [3]: > 100 µM

CC(NC(=O)c1cnn2c(C(F)(F)F)cc(-c3ccc(Br)cc3)nc12)c1ccccc1 (centres undefined)
EC50 [1]: 1.52 µM | EC50 [2]: > 10.8 µM | CC50 [3]: > 100 µM

O=C(Nc1ccc(Oc2cccnc2)cc1)C1CCN(Cc2cc3ccccc3o2)CC1
EC50 [1]: 1.51 µM | EC50 [2]: 0.367 µM | CC50 [3]: > 100 µM

CCOC(=O)C1=C(c2ccccc2)N=c2sc(=Cc3cccnc3)c(=O)n2C1c1c(OC)ccc2ccccc12 (centres undefined)
EC50 [1]: 1.55 µM | EC50 [2]: 4.15 µM | CC50 [3]: > 100 µM

COc1ccc(C2C(C(=O)OC3CCCC3)=C(C)NC3=C2C(=O)CC(C)(C)C3)cc1Br (centres undefined)
EC50 [1]: 1.55 µM | EC50 [2]: 7 µM | CC50 [3]: > 100 µM

COc1cccc(CNC(=O)C2CNCC2c2ccc(C(F)(F)F)cc2)c1 (centres undefined)
EC50 [1]: 0.111 µM | EC50 [2]: 0.395 µM | CC50 [3]: > 7.22 µM

COc1ccc2c(C)nc(NC(=N)N)nc2c1
EC50 [1]: 1.02 µM | EC50 [2]: 0.417 µM | CC50 [3]: 66.3 µM

CCC(C)C(=O)N1CCC(C(=O)Nc2ccc(-c3nc4ccccc4o3)cc2)CC1 (centres undefined)
EC50 [1]: 1.58 µM | EC50 [2]: 1.86 µM | CC50 [3]: > 100 µM

COc1ccc(-c2noc(CNC(=O)c3cccc(I)c3)n2)cc1
EC50 [1]: 1.58 µM | EC50 [2]: > 12.5 µM | CC50 [3]: > 100 µM

C/C(=C\c1csc(C)n1)[C@@H]1C[C@@H]2O[C@@H]2CCC[C@H](C)C(O)[C@@H](C)C(=O)C(C)(C)[C@@H](O)CC(=O)O1 (some centres undefined)
EC50 [1]: 0.155 µM | EC50 [2]: 1.03 µM | CC50 [3]: > 10 µM

Cc1cc2c(cc1C)NC(c1ccc(Cl)c(F)c1)C1=C(CC(C)(C)CC1=O)N2 (centres undefined)
EC50 [1]: 1 µM | EC50 [2]: 1.07 µM | CC50 [3]: 64.5 µM

N=c1c2c(n(CCc3ccccc3)c3c1CCC3)CCCC2
EC50 [1]: 0.234 µM | EC50 [2]: 0.0587 µM | CC50 [3]: 15.3 µM

c1ccc2c(c1)[nH]c1c(NCCN3CCCCC3)ncnc12
EC50 [1]: 0.788 µM | EC50 [2]: 0.704 µM | CC50 [3]: 49.9 µM

O=S(=O)(Nc1cc(Sc2nc[nH]n2)c(O)c2ccccc12)c1ccc(F)cc1
EC50 [1]: 0.323 µM | EC50 [2]: 1.6 µM | CC50 [3]: 20.5 µM

CN1CCC(CCNCc2ccc(OCC(O)CN(C)Cc3ccccc3)cc2)CC1 (centres undefined)
EC50 [1]: 1.08 µM | EC50 [2]: 1.11 µM | CC50 [3]: 68.6 µM

Cc1ccccc1OCCSc1nc2ccc(NC(=O)c3cccs3)cc2s1
EC50 [1]: 1.58 µM | EC50 [2]: 0.497 µM | CC50 [3]: > 100 µM

CC(C)c1ccc(NC(=O)C(Cc2cccs2)c2nnn[nH]2)cc1 (centres undefined)
EC50 [1]: 1.57 µM | EC50 [2]: 11.3 µM | CC50 [3]: > 100 µM

COc1cc(C=C(C#N)c2nc3ccccc3[nH]2)ccc1OCc1ccc(Cl)cc1
EC50 [1]: 1.57 µM | EC50 [2]: 0.763 µM | CC50 [3]: > 100 µM

Cc1ccc2c(C)nc(NC(=N)N)nc2c1
EC50 [1]: 0.756 µM | EC50 [2]: 0.406 µM | CC50 [3]: 48.2 µM

CC(=O)N(C1=C(N2CCOCC2)C(=O)c2ccccc2C1=O)c1ccc(Cl)c(Cl)c1
EC50 [1]: 0.191 µM | EC50 [2]: 0.22 µM | CC50 [3]: 12.2 µM

Cc1ccn2c(NC(C)(C)CC(C)(C)C)c(-c3ccccc3OC(=O)c3ccc4ccccc4c3)nc2c1
EC50 [1]: 0.152 µM | EC50 [2]: 0.729 µM | CC50 [3]: > 10 µM

CCOC(=O)c1c(C)n(-c2ccccc2)c2ccc(OC(=O)c3ccccc3NC(=O)CC)cc12
EC50 [1]: 1.53 µM | EC50 [2]: 1.06 µM | CC50 [3]: > 100 µM

Cn1nc(C(F)(F)F)c(-c2ccc(F)cc2)c1NC(=O)Nc1ccc(F)cc1F
EC50 [1]: 0.448 µM | EC50 [2]: 0.291 µM | CC50 [3]: 29.2 µM

CC1=NOC(=O)C1=Cc1cccs1
EC50 [1]: 0.776 µM | EC50 [2]: > 8.25 µM | CC50 [3]: 49.7 µM

CCCN(CCC)CCNC(=O)c1cc2c(-c3ccc(Cl)cc3)nn(C)c2s1
EC50 [1]: 0.703 µM | EC50 [2]: 0.253 µM | CC50 [3]: 45.8 µM

CNC1=C(N(C(C)=O)c2ccc(Br)cc2)C(=O)c2ccccc2C1=O
EC50 [1]: 0.156 µM | EC50 [2]: 0.162 µM | CC50 [3]: > 10 µM

CCCCCCc1ccc(C(=O)NCCCCNc2ccnc3cc(Cl)ccc23)cc1
EC50 [1]: 0.169 µM | EC50 [2]: 0.241 µM | CC50 [3]: > 10.8 µM

CN(C)c1ccc(C=C2C(=O)NC(=O)N(Cc3ccccc3Cl)C2=O)cc1
EC50 [1]: 1.55 µM | EC50 [2]: > 12.5 µM | CC50 [3]: > 100 µM

COc1ccc(C2=Nc3cc(C(=O)NCCN4CCOCC4)ccc3CN2C(C)C)cc1
EC50 [1]: 1.53 µM | EC50 [2]: 5.27 µM | CC50 [3]: > 100 µM

Cc1cc(C)cc(NC2=C(c3ccccc3)C(=O)c3ccccc32)c1
EC50 [1]: 1.53 µM | EC50 [2]: 1.83 µM | CC50 [3]: > 100 µM

Cc1cc(C)c(C(Nc2ccccn2)c2ccc3cccnc3c2O)c(C)c1 (centres undefined)
EC50 [1]: 1.07 µM | EC50 [2]: 3.18 µM | CC50 [3]: > 67.9 µM

CC(OC(=O)c1ccccc1N1C(=O)C2C3C=CC(C4CC34)C2C1=O)C(=O)c1ccccc1 (centres undefined)
EC50 [1]: 1.57 µM | EC50 [2]: 0.961 µM | CC50 [3]: > 100 µM

O=c1oc(-c2ccccc2F)nc2sc3c(c12)CCCC3
EC50 [1]: 1.57 µM | EC50 [2]: > 12.5 µM | CC50 [3]: > 100 µM

Cc1ccc(-c2cn3ccccc3[n+]2-c2ccccc2)cc1
EC50 [1]: 0.817 µM | EC50 [2]: 0.214 µM | CC50 [3]: 51.7 µM

COc1cc(C2C(C(=O)OCCc3ccccc3)=C(C)NC3=C2C(=O)CC(c2ccc(Cl)cc2)C3)ccc1OCc1ccccc1 (centres undefined)
EC50 [1]: 1.58 µM | EC50 [2]: 6.94 µM | CC50 [3]: > 100 µM

CC1(C)C2CCC1(C)C(OCC[N+]1(Cc3ccccc3)CCCC1)C2 (centres undefined)
EC50 [1]: 0.195 µM | EC50 [2]: 0.161 µM | CC50 [3]: 12.7 µM

COc1cc(CNc2ccc(N3CCCCC3)cc2)cc(Cl)c1OCc1ccc(F)cc1
EC50 [1]: 1.54 µM | EC50 [2]: 3.04 µM | CC50 [3]: > 100 µM

Cc1ccc(NC(=O)c2sc3nc4c(c(-c5cccs5)c3c2N)CCCCC4)cc1
EC50 [1]: 1.55 µM | EC50 [2]: 5.57 µM | CC50 [3]: > 100 µM

COC(=O)c1sc2nc(CN3CCCC(C)C3)ccc2c1NC(=O)c1ccc(C)s1 (centres undefined)
EC50 [1]: 1.56 µM | EC50 [2]: 1.81 µM | CC50 [3]: > 100 µM
